≈ marks a conversion by molar mass, not a printed value. Like-named read-outs stand apart in the source and are kept apart here.
Tests used:
[1] = test system: Cryptococcus neoformans (ATCC 208821); experiment: Intrinsic antifungal activity (MIC) against C. neoformans; assay type: cell-based; conditions: ATCC208821, C. neoformans ATCC 208821, mean (n = 2), read-out: MIC C. n
Procedure: (§1) The susceptibility of bacterial strains Staphylococcus aureus (ATCC 25923), Escherichia coli (ATCC 25922) and Pseudomonas aeruginosa (ATCC 27853) to antibiotics and compounds was determined using previously reported protocols. Additional antimicrobial evaluation against MRSA (ATCC 43300), Klebsiella pneumoniae (ATCC 700603), Acinetobacter baumannii (ATCC 19606), Candida albicans (ATCC 90028) and Cryptococcus neoformans (ATCC 208821) was undertaken at the Community for Open Antimicrobial Drug Discovery at The University of Queensland (Australia) according to their standard protocols, as reported previously.

[2] = test system: Pseudomonas aeruginosa (ATCC 27853); experiment: Intrinsic antimicrobial activity (MIC) against P. aeruginosa; assay type: cell-based; conditions: ATCC27853, P. aeruginosa ATCC 27853, mean (n = 3), read-out: MIC P. a
Procedure: as §1

MRSA (ATCC 43300) = experiment: Intrinsic antimicrobial activity (MIC) against MRSA; assay type: cell-based; conditions: Staphylococcus aureus, read-out: MIC MRSA
Procedure: as §1

P. aeruginosa ATCC 27853 = experiment: Enhancement of doxycycline action against P. aeruginosa; assay type: cell-based, Pseudomonas aeruginosa; conditions: doxycycline at 4.5 µM
Procedure: (§2) Antibiotic enhancer concentrations were determined using previously reported protocols.

[3] = test system: Staphylococcus aureus (ATCC 25923); experiment: Intrinsic antimicrobial activity (MIC) against S. aureus; assay type: cell-based; conditions: ATCC25923, S. aureus ATCC 25923, mean (n = 3), read-out: MIC S. a
Procedure: as §1

E. coli ATCC 25922 = experiment: Enhancement of erythromycin action against E. coli; assay type: cell-based, Escherichia coli; conditions: erythromycin at 10.9 µM
Procedure: as §2

[4] = test system: Escherichia coli (ATCC 25922); experiment: Intrinsic antimicrobial activity (MIC) against E. coli; assay type: cell-based; conditions: ATCC25922, E. coli ATCC 25922, mean (n = 3), read-out: MIC E. c
Procedure: as §1

human red blood cells = experiment: Hemolytic assay; assay type: cell-based; conditions: mean (n = 2)
Procedure: Hemolysis assays were conducted using the protocols previously reported.

[5] = test system: Candida albicans (ATCC 90028); experiment: Intrinsic antifungal activity (MIC) against C. albicans; assay type: cell-based; conditions: ATCC90028, C. albicans ATCC 90028, mean (n = 2), read-out: MIC C. a
Procedure: as §1

Cytotoxicity assay = assay type: cell-based; conditions: human; HEK293 cells; mean (n = 2); read-out: Cytotoxicity: concentration of compound at 50% cytotoxicity (IC50)
Procedure: Cytotoxicity assays were conducted using the protocols previously reported.

| Compound | MIC [1] [µM] | MIC [2] [µM] | MIC (MRSA (ATCC 43300); MRSA ATCC 43300, mean (n = 2)) [µM] | Dox/P. a fold change (ratio between intrinsic MIC of the test compound and combination MIC) (P. aeruginosa ATCC 27853) [fold] | Dox/P. a: concentration required to restore doxycycline activity (combination MIC) (P. aeruginosa ATCC 27853) [µM] | MIC [3] [µM] | Eryth/E. c: concentration required to restore erythromycin activity (combination MIC) (E. coli ATCC 25922) [µM] | MIC [4] [µM] | Hemolysis: concentration of compound at 10% hemolytic activity (HC10) (human red blood cells) [µM] | MIC [5] [µM] | IC50 (Cytotoxicity assay) [µM] | MIC (MRSA (ATCC 43300)) [µM] |
| --- | --- | --- | --- | --- | --- | --- | --- | --- | --- | --- | --- | --- |
| O=C(Cc1c[nH]c2ccccc12)NCCCNCCCCCCNCCCNC(=O)Cc1c[nH]c2ccccc12.O=C(O)C(F)(F)F.O=C(O)C(F)(F)F [Compound 14b, N^1,N^6-Bis(3-(2-(1H-indol-3-yl)acetamido)propyl)hexane-1,6-diaminium 2,2,2-trifluoroacetate] | < 0.2 | > 259 | < 0.2 | > 2 | 129 | 129 | > 259 | > 129 | >41 | > 41 | > 41 | – |
| Cc1ccc2[nH]cc(CC(=O)NCCCNCCCCCCCCNCCCNC(=O)Cc3c[nH]c4ccc(C)cc34)c2c1.O=C(O)C(F)(F)F.O=C(O)C(F)(F)F [Compound 17d, N^1,N^8-Bis(3-(2-(5-methyl-1H-indol-3-yl)acetamido)propyl)octane-1,8-diaminium 2,2,2-trifluoroacetate] | ≤ 0.3 | > 241 | ≤ 0.3 | > 1 | 241 | 15.1 | 121 | 241 | 0.42 | 2.41 | > 39 | – |
| O=C(Cc1c[nH]c2c(F)cccc12)NCCCNCCCCCCCNCCCNC(=O)Cc1c[nH]c2c(F)cccc12.O=C(O)C(F)(F)F.O=C(O)C(F)(F)F [Compound 18c, N^1,N^7-Bis(3-(2-(7-fluoro-1H-indol-3-yl)acetamido)propyl)heptane-1,7-diaminium 2,2,2-trifluoroacetate] | ≤ 0.3 | > 243 | ≤ 0.3 | > 1 | 243 | 30.4 | 243 | > 243 | 1.94 | 38.9 | > 39 | – |
| O=C(Cc1c[nH]c2c(F)cccc12)NCCCNCCCCCCCCNCCCNC(=O)Cc1c[nH]c2c(F)cccc12.O=C(O)C(F)(F)F.O=C(O)C(F)(F)F [Compound 18d, N^1,N^8-Bis(3-(2-(7-fluoro-1H-indol-3-yl)acetamido)propyl)octane-1,8-diaminium 2,2,2-trifluoroacetate] | < 0.2 | > 239 | < 0.2 | 1 | > 239 | 29.9 | > 239 | > 239 | >38 | > 38 | > 38 | – |
| O=C(Cc1c[nH]c2c(F)cccc12)NCCCNCCCCCCCCCCNCCCNC(=O)Cc1c[nH]c2c(F)cccc12.O=C(O)C(F)(F)F.O=C(O)C(F)(F)F [Compound 18e, N^1,N^10-Bis(3-(2-(7-fluoro-1H-indol-3-yl)acetamido)propyl)decane-1,10-diaminium 2,2,2-trifluoroacetate] | ≤ 0.29 | > 231 | ≤ 0.29 | 1 | 231 | 7.23 | 57.8 | 116 | 1.49 | 2.31 | > 37 | – |
| COc1cccc2c(CC(=O)NCCCNCCCCCCNCCCNC(=O)Cc3c[nH]c4c(OC)cccc34)c[nH]c12.O=C(O)C(F)(F)F.O=C(O)C(F)(F)F [Compound 19b, N^1,N^6-Bis(3-(2-(7-methoxy-1H-indol-3-yl)acetamido)propyl)hexane-1,6-diaminium 2,2,2-trifluoroacetate] | < 0.2 | > 240 | < 0.2 | 1 | > 240 | 30 | 240 | 240 | – | > 38 | > 38 | – |
| COc1cccc2c(CC(=O)NCCCNCCCCCCCCCCNCCCNC(=O)Cc3c[nH]c4c(OC)cccc34)c[nH]c12.O=C(O)C(F)(F)F.O=C(O)C(F)(F)F [Compound 19e, N^1,N^10-Bis(3-(2-(7-methoxy-1H-indol-3-yl)acetamido)propyl)decane-1,10-diaminium 2,2,2-trifluoroacetate] | < 0.2 | > 225 | < 0.2 | > 1 | 225 | 28.1 | 225 | > 225 | – | > 36 | > 36 | – |
| Cc1cccc2c(CC(=O)NCCCNCCCCCCCCNCCCNC(=O)Cc3c[nH]c4c(C)cccc34)c[nH]c12.O=C(O)C(F)(F)F.O=C(O)C(F)(F)F [Compound 20d, N^1,N^8-Bis(3-(2-(7-methyl-1H-indol-3-yl)acetamido)propyl)octane-1,8-diaminium 2,2,2-trifluoroacetate] | < 0.2 | > 241 | < 0.2 | 1 | > 241 | 30.2 | 241 | 241 | – | 38.6 | > 39 | – |
| O=C(N[C@H](CO)[C@H](O)c1ccc([N+](=O)[O-])cc1)C(Cl)Cl [chloramphenicol, reference compound] | – | – | – | – | – | 1.5 to 3 (≈ 0.485 to 0.969 µg/mL) | – | – | – | – | – | – |
| OC(Cn1cncn1)(Cn1cncn1)c1ccc(F)cc1F [fluconazole, reference compound] | 26 (≈ 7.96 µg/mL) | – | – | – | – | – | – | – | – | 0.4 (≈ 0.123 µg/mL) | – | – |
| [H]/N=C(/N)N[C@H]1[C@H](O)[C@@H](O)[C@H](O[C@@H]2O[C@@H](C)[C@](O)(C=O)[C@H]2O[C@@H]2O[C@@H](CO)[C@H](O)[C@@H](O)[C@@H]2NC)[C@@H](N/C(N)=N\[H])[C@@H]1O [streptomycin, reference compound] | – | 21.5 (≈ 12.5 µg/mL) | – | – | – | 21.5 (≈ 12.5 µg/mL) | – | 21.5 (≈ 12.5 µg/mL) | – | – | – | – |
| CC/C(=C(\c1ccccc1)c1ccc(OCCN(C)C)cc1)c1ccccc1 [tamoxifen, reference compound] | – | – | – | – | – | – | – | – | – | – | 24 | – |
| CN[C@H](CC(C)C)C(=O)N[C@H]1C(=O)N[C@@H](CC(N)=O)C(=O)N[C@H]2C(=O)N[C@H]3C(=O)N[C@H](C(=O)N[C@H](C(=O)O)c4cc(O)cc(O)c4-c4cc3ccc4O)[C@H](O)c3ccc(c(Cl)c3)Oc3cc2cc(c3O[C@@H]2O[C@H](CO)[C@@H](O)[C@H](O)[C@H]2O[C@H]2C[C@](C)(N)[C@H](O)[C@H](C)O2)Oc2ccc(cc2Cl)[C@H]1O [vancomycin, reference compound] | – | – | – | – | – | – | – | – | – | – | – | 0.7 (≈ 1.01 µg/mL) |

— PMC10452110, “Indole-3-Acetamido-Polyamines as Antimicrobial Agents and Antibiotic Adjuvants” (Biomolecules, 2023)
